This note sets out measurements from patent US6355799B1, “Substituted benzene compounds, process for their preparation, and herbicidal and defoliant compositions containing them” (ISK Americas Incorporated, priority 1997, dated 2002).

Like-named read-outs stand apart in the source and are kept apart here.

Type in all cases: in vivo
Data set [1] deals with redroot pigweed (Amaranthus retroflexus, AMARE). The data set can be described thus: Pre-emerge test, greenhouse herbicide activity screening. Conditions: for Pre-emerge Herbicidal Activity AMARE (phytotoxicity rating, scale 0-100): rated 14 days after application, 0 = no damage, 100 = complete death; for pest or weed control at 63 g/ha / pest or weed control at 250 g/ha: Amaranthus retroflexus, pre-emergence, 336 h, read-out: Pre-emerge Herbicidal Activity AMARE. In short, it runs like this:
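Rating: 0–100 visual injury, 14 DAA. Application: acetone, 187 l/ha, 15–1000 g ai/ha, flat-fan track sprayer with nozzle 40–45 cm above soil or canopy. Post-emerge runs used 0.25% v/v surfactant on 2–3 leaf plants.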

Data set [2] concerns large crabgrass (Digitaria sanguinalis, DIGSA). The data set can be described thus: Post-emerge test, greenhouse herbicide activity screening. Particulars: for pest or weed control at 63 g/ha / pest or weed control at 250 g/ha: Digitaria sanguinalis, post-emergence, 336 h, read-out: Post-emerge Herbicidal Activity DIGSA; for phytotoxicity rating DIGSA: rating scale 0-100. An outline of the steps: (§1)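 Plants grown in 10 cm pots of sandy loam mix received acetone-dissolved compounds through a moving flat-fan nozzle. Doses ranged from 15 to 1000 g ai/ha. Pre-emerge pots were seeded one day earlier, post-emerge pots 8–21 days earlier. Fourteen days on, each pot was graded 0–100 for damage.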

The test system of data set [3] is redroot pigweed (Amaranthus retroflexus, AMARE). The description is as above. Conditions: for pest or weed control at 63 g/ha / pest or weed control at 250 g/ha: Amaranthus retroflexus, post-emergence, 336 h, read-out: Post-emerge Herbicidal Activity AMARE. In short, it runs like this: as §1
For data set [4], the system named is common ragweed (Ambrosia artemisizfolia L., AMBEL). Described as above. Particulars: for phytotoxicity rating AMBEL: rating scale 0-100. An outline of the steps:
as §1

The test system is the same in data set [5]. Kind of data set: Pre-emerge test, greenhouse herbicide activity screening. Particulars: for Pre-emerge Herbicidal Activity AMBEL (phytotoxicity rating, scale 0-100): rated 14 days after application, 0 = no damage, 100 = complete death. An outline of the steps:
(§2)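 Applied at 15–1000 g ai/ha from acetone in 187 l/ha spray volume. Post-emergence applications included 0.25% v/v non-ionic surfactant and reached plants sown 8–21 days before. Pre-emergence applications were incorporated by surface watering. Efficacy or crop damage was rated on a 0–100 scale after 14 days.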

Data set [6] relates to upland rice (Oryza sp., var. Tebonnet, RICE). The data set can be described thus: Pre-emerge test, crop safety. Conditions: crop damage rating 0-100, 14 days after application. In short, it runs like this:
(§3)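 Compounds in acetone were track-sprayed at 15-1000 g ai/ha (187 l/ha) on sandy loam pots: pre-emerge one day after seeding, post-emerge at 2-3 leaf stage with 0.25% v/v non-ionic surfactant. Phytotoxicity was rated 14 days later on a 0 (no damage) to 100 (complete death) scale.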

Data set [7] concerns soybean (Glycine max L., var. Pella 86, SOY). The data set can be described thus: Pre-emerge test, crop safety. Conditions: crop damage rating 0-100, 14 days after application. An outline of the steps: as §3
Data set [8] concerns field corn (Zea mays L., var. Dekalb 535, CORN). Kind of data set: Pre-emerge test, crop safety. Particulars: crop damage rating 0-100, 14 days after application. In short, it runs like this: as §3
Data set [9] concerns upland rice (Oryza sp., var. Tebonnet, RICE). The data set can be described thus: Post-emerge test, crop safety. Particulars: post-emerge, 14 days after application, rating scale 0-100. An outline of the steps:
as §2

Data set [10] has as its system soybean (Glycine max L., var. Pella 86, SOY). Kind of data set: Post-emerge test, crop safety. Conditions: 14 days after application, rating scale 0-100. An outline of the steps: as §2
The subject of data set [11] is field corn (Zea mays L., var. Dekalb 535, CORN). Kind of data set: Post-emerge test, crop safety. Conditions: post-emerge, 14 days after application, rating scale 0-100. An outline of the steps: as §2
Setting [12] is: 63 g ai/ha, phytotoxicity rating 0-100 (0 no damage, 100 complete death), 14 days after application.
Setting [13] is: 250 g ai/ha, phytotoxicity rating 0-100 (0 no damage, 100 complete death), 14 days after application.
Where [14] appears, read: 63 g ai/ha, phytotoxicity rating 0-100, 14 days after application.
[15] abbreviates: 250 g ai/ha, phytotoxicity rating 0-100, 14 days after application.
Setting [16] is: post-emerge, 63 g ai/ha, 14 days after application.
Setting [17] is: post-emerge, 250 g ai/ha, 14 days after application.
Where [18] appears, read: post-emerge, 63 g ai/ha, 14 days after application, rating scale 0-100 (0 no damage, 100 complete death).
Where [19] appears, read: post-emerge, 250 g ai/ha, 14 days after application, rating scale 0-100.
Setting [20] is: pre-emerge, rate 63 g ai/ha, phytotoxicity rating 0-100 at 14 days after application.
The mark [21] stands for this setting: pre-emerge, rate 250 g ai/ha, phytotoxicity rating 0-100 at 14 days after application.
Where [22] appears, read: post-emerge, 63 g ai/ha, phytotoxicity rating 0-100 at 14 days after application.
The mark [23] stands for this setting: post-emerge, 250 g ai/ha, phytotoxicity rating 0-100 at 14 days after application.

In the case of `Cn1c(C(F)(F)F)cc(=O)n(-c2c(F)cc(Cl)c(O)c2N)c1=O` [Compound 1-16, 3-(2-amino-4-chloro-6-fluoro-3-hydroxyphenyl)-1-methyl-6-trifluoromethyl-2,4(1H, 3H)-pyrimidinedione], the “Pre-emerge Herbicidal Activity AMARE (phytotoxicity rating, scale 0-100)” value is 0 in data set [1] (63 g ai/ha, pre-emerge) and 0 in data set [1] (250 g ai/ha, pre-emerge). For the same molecule, the results for the pest or weed control at 63 g/ha in data set [2] (setting [12]) and in data set [3] (setting [12]) were 0% and 30%, respectively. Besides, the values for the pest or weed control at 250 g/ha in [2] (setting [13]) and in data set [3] (setting [13]) were 0% and 70%, respectively. The “Post-emerge Herbicidal Activity AMBEL” value in [4] (setting [12]) and in [4] (setting [13]) was 0 in each case. Also, the “Pre-emerge Herbicidal Activity AMBEL (phytotoxicity rating, scale 0-100)” value was 0 in [5] (63 g ai/ha, pre-emerge) and 0 in [5] (250 g ai/ha, pre-emerge).

With `COc1c(Cl)cc(F)c(-n2c(=O)cc(C(F)(F)F)n(C)c2=O)c1N(C(C)=O)C(C)=O` [Compound 2-2, 3-(4-chloro-2-diacetylamino-6-fluoro-3-methoxyphenyl)-1-methyl-6-trifluoromethyl-2,4(1H, 3H)-pyrimidinedione], the “Pre-emerge Herbicidal Activity AMARE (phytotoxicity rating, scale 0-100)” value in [1] (63 g ai/ha, pre-emerge) was 100; in [1] (250 g ai/ha, pre-emerge), 100. Further, the pest or weed control at 63 g/ha in data set [2] (setting [12]) worked out at 0%; in data set [3] (setting [12]), 90%. For the same molecule, the pest or weed control at 250 g/ha in data set [2] (setting [13]) was determined as 30%; in data set [3] (setting [13]) it was 100%. Also, the “Post-emerge Herbicidal Activity AMBEL” value turned out to be 0 in data set [4] (setting [12]) and 70 in data set [4] (setting [13]). Also, the “Pre-emerge Herbicidal Activity AMBEL (phytotoxicity rating, scale 0-100)” value in [5] (63 g ai/ha, pre-emerge) is 40; in data set [5] (250 g ai/ha, pre-emerge), 100.

Regarding `CNC(=O)N(C(=O)NC)c1c(OC)c(Cl)cc(F)c1-n1c(=O)cc(C(F)(F)F)n(C)c1=O` [Compound 3-1, 3-[2-bis(methylaminocarbonyl)amino-4-chloro-6-fluoro-3-methoxyphenyl]-1-methyl-6-trifluoromethyl-2,4(1H, 3H)-pyrimidinedione], the pest or weed control at 63 g/ha in data set [1] (setting [14]) worked out at 0%. Besides, the pest or weed control at 250 g/ha in data set [1] (setting [15]) was found to be 30%. Moreover, the “phytotoxicity rating DIGSA” value in [2] (setting [16]) and in data set [2] (setting [17]) was 0 throughout. Also, the “phytotoxicity rating AMARE” value in data set [3] (setting [18]) turned out to be 0; in [3] (setting [19]) it was 60. The “phytotoxicity rating AMBEL” value in data set [4] (setting [16]) and in data set [4] (setting [17]) was 0 in each case. For the same molecule, the “Pre-emerge Herbicidal Activity AMBEL” value in data set [5] (setting [14]) and in data set [5] (setting [15]) was 0 in each case.

Turning to `COC(=O)Nc1c(OC)c(Cl)cc(F)c1-n1c(=O)cc(C(F)(F)F)n(C)c1=O` [Compound 4-1, 3-(4chloro-6-fluoro-3-methoxy-2-methoxycarbonylaminophenyl)-1-methyl-6-trifluoromethyl-2,4(1H, 3H)-pyrimidinedione], the pest or weed control at 63 g/ha in data set [1] (setting [14]) worked out at 100%. Further, in data set [1] (setting [15]), the pest or weed control at 250 g/ha came to 100%. Moreover, the “phytotoxicity rating DIGSA” value in [2] (setting [16]) and in data set [2] (setting [17]) was 0 in each case. Moreover, the “phytotoxicity rating AMARE” value in data set [3] (setting [18]) is 50; in data set [3] (setting [19]), 95. For the same molecule, the “phytotoxicity rating AMBEL” value amounted to 40 in data set [4] (setting [16]) and 90 in data set [4] (setting [17]). The “Pre-emerge Herbicidal Activity RICE” value in data set [6] (63 g ai/ha) is 50; in data set [6] (250 g ai/ha) it was 95. Also, the figures for the “Pre-emerge Herbicidal Activity SOY” value in data set [7] (63 g ai/ha) and in [7] (250 g ai/ha) were 70 and 100, respectively. Further, the “Pre-emerge Herbicidal Activity CORN” value was 10 in [8] (63 g ai/ha) and 80 in [8] (250 g ai/ha). Further, the “phytotoxicity rating RICE (crop damage)” value is reported as 20 in [9] (63 g ai/ha) and 50 in data set [9] (250 g ai/ha). For the same molecule, the “phytotoxicity rating SOY (crop damage)” value is 50 in data set [10] (63 g ai/ha) and 100 in [10] (250 g ai/ha). Moreover, the “phytotoxicity rating CORN (crop damage)” value in [11] (63 g ai/ha) amounted to 10; in data set [11] (250 g ai/ha), 20.

With `COc1c(Cl)cc(F)c(-c2nn(C)c(C(F)(F)F)c2Cl)c1N` [Compound 7-2, 4-chloro-3-(2-amino-4-chloro-6-fluoro3-metoxyphenyl)-1-methyl-5-trifluoromethyl-1H-pyrazole], the values for the pest or weed control at 63 g/ha in data set [1] (setting [20]), in [2] (setting [22]) and in data set [3] (setting [22]) were 100%, 20% and 100%, respectively. Further, the pest or weed control at 250 g/ha in [1] (setting [21]) was determined as 100%; in [2] (setting [23]) it was 70%; in data set [3] (setting [23]), 100%. Further, the figures for the “Post-emerge Herbicidal Activity AMBEL” value in [4] (setting [22]) and in [4] (setting [23]) were 0 and 10, respectively. Moreover, the “Pre-emerge Herbicidal Activity AMBEL” value in data set [5] (setting [20]) amounted to 80; in data set [5] (setting [21]), 100.
